Measured values published in ChEMBL document CHEMBL4130359, “Indazole-based ligands for estrogen-related receptor α as potential anti-diabetic agents” (Eur J Med Chem, 2017).

Assays:
Rattus norvegicus [1] = assay: Decrease in fed plasma triglyceride level in Zucker rat sub-chronic fa/fa prediabetic model assessed as change in plasma triglyceride level at 10 mg/kg, po qd for 4 days measured on day 5 relative to control; type: functional; design: scale not given: the % may be the effect or the level left
Rattus norvegicus [2] = assay: Toxicity in Zucker rat sub-chronic fa/fa prediabetic model assessed as effect on liver enzymes at 10 mg/kg, po qd during 10 days study; type: organism-based; settings: in vivo, 240 h
[3] = AUC (0 to 24 hrs) in […] at 15 mg/kg administered via oral gavage by LC-MS analysis; type: ADME, organism-based; design: dose 15 mg/kg, time < 24 hr, route oral; settings: in vivo
[4] = Terminal half life in Sprague-Dawley rat at 10 mg/kg administered via oral gavage by LC-MS analysis; type: ADME, organism-based; settings: in vivo, read-out: beta t1/2 (converted)
[5] = Cmax in Zucker rat sub-chronic fa/fa prediabetic model at 10 mg/kg, po qd for 26 days measured on day 26 post last dose; type: ADME, organism-based; design: dose 10 mg/kg, route oral; settings: in vivo
[6] = AUC (0 to 24 hrs) in Zucker rat sub-chronic fa/fa prediabetic model at 50 mg/kg, po qd for 26 days measured on day 26 post last dose; type: ADME, organism-based; design: dose 50 mg/kg, time < 24 hr, route oral; settings: in vivo
Rattus norvegicus [7] = assay: Toxicity in Zucker rat sub-chronic fa/fa prediabetic model assessed as change in body weight at 1 mg/kg, po qd for 29 days measured on day 1 to 29 during compound dosing (reference value: 140 +/- 7 g); type: organism-based; settings: in vivo, 696 h
Rattus norvegicus [8] = assay: Toxicity in Zucker rat sub-chronic fa/fa prediabetic model assessed as change in body weight at 3 mg/kg, po qd for 29 days measured on day 1 to 29 during compound dosing (reference value: 140 +/- 7 g); type: organism-based; settings: in vivo, 696 h
Rattus norvegicus [9] = assay: Toxicity in Zucker rat sub-chronic fa/fa prediabetic model assessed as change in body weight at 50 mg/kg, po qd for 29 days measured on day 1 to 29 during compound dosing (reference value: 140 +/- 7 g); type: organism-based; settings: in vivo, 696 h
Rattus norvegicus [10] = assay: Toxicity in Zucker rat sub-chronic fa/fa prediabetic model assessed as food intake at 50 mg/kg, po qd for 29 days measured on day 1 to 29 during compound dosing (reference value: 969 +/- 18 g); type: organism-based; settings: in vivo, 696 h
Rattus norvegicus [11] = assay: Toxicity in Zucker rat sub-chronic fa/fa prediabetic model assessed as epididymal white adipose tissue weight at 3 mg/kg, po qd for 31 days measured on day 32 (reference value: 13.9 +/- 0.6 g); type: organism-based; settings: in vivo, 744 h
[12] = Drug uptake in kidney of Zucker rat sub-chronic fa/fa prediabetic model at 12.5 mg/kg, po qd for 11 days; type: ADME, organism-based; settings: read-out: Drug uptake
Rattus norvegicus [13] = type: functional, Zucker
[14] = Cmax in […] chronic ob/ob model at 3 mg/kg, po qd measured on day 1 post dose; type: ADME, organism-based; design: dose 3 mg/kg, route oral; settings: in vivo
[15] = Cmax in […] chronic ob/ob model at 50 mg/kg, po qd measured on day 1 post dose; type: ADME, organism-based; design: dose 50 mg/kg, route oral; settings: in vivo
[16] = AUC (0 to 24 hrs) in […] model at 50 mg/kg, po qd measured on day 1 post dose; type: ADME, organism-based; design: dose 50 mg/kg, time < 24 hr, route oral; settings: in vivo
Rattus norvegicus [17] = assay: Antidiabetic activity in po dosed Zucker rat chronic ob/ob model assessed as reduction in HbA1c level administered once daily for 31 days measured on day 28 post dose by OGTT; type: functional, organism-based
Rattus norvegicus [18] = assay: Toxicity in […] chronic ob/ob model assessed as body weight at 10 mg/kg, po qd for 28 days measured on day 28 post last dose (reference value: 47.3 +/- 1.06 g); type: organism-based; settings: in vivo, 672 h
Rattus norvegicus [19] = assay: Toxicity in […] chronic ob/ob model assessed as food intake at 10 mg/kg, po qd for 28 days measured on day 1 to 28 during compound dosing (reference value: 170.6 +/- 3 g); type: organism-based; settings: in vivo, 672 h
Rattus norvegicus [20] = assay: Toxicity in […] model assessed as liver weight at 3 mg/kg, po qd for 31 days measured on day 32 (reference value: 2.77 +/- 0.16 g); type: organism-based; settings: in vivo, 744 h
Rattus norvegicus [21] = assay: Toxicity in […] model assessed as serum cholesterol level at 10 mg/kg, po qd for 31 days measured on day 32 (reference value: 195 +/- 5.5 mg/dl); type: organism-based; settings: in vivo, 744 h
Rattus norvegicus [22] = assay: Toxicity in […] model assessed as serum ALT level at 50 mg/kg, po qd for 31 days measured on day 32 (reference value: 127 +/- 9 U/L); type: organism-based; settings: in vivo, 744 h
Rattus norvegicus [23] = assay: Toxicity in […] model assessed as serum creatinine level at 10 mg/kg, po qd for 31 days measured on day 32 (reference value: 0.55 +/- 0.018 mg/dl); type: organism-based; settings: in vivo, 744 h
Rattus norvegicus [24] = assay: Antidiabetic activity in […] chronic ob/ob model assessed as increase in plasma adiponectin level administered po qd for 31 days measured on day 32 by ELISA; type: functional, organism-based
Rattus norvegicus [25] = assay: Effect on IDH3B gene expression in epididymal white adipose tissue of Zucker rat sub-chronic fa/fa prediabetic model at 10 mg/kg, po qd for 15 days by microarray analysis relative to control; type: functional
Rattus norvegicus [26] = assay: Effect on SUCLG1 gene expression in epididymal white adipose tissue of Zucker rat sub-chronic fa/fa prediabetic model at 10 mg/kg, po qd for 15 days by microarray analysis relative to control; type: functional
Rattus norvegicus [27] = assay: Effect on COX6A2 gene expression in epididymal white adipose tissue of Zucker rat sub-chronic fa/fa prediabetic model at 10 mg/kg, po qd for 15 days by microarray analysis relative to control; type: functional
Rattus norvegicus [28] = assay: Effect on ACADM gene expression in epididymal white adipose tissue of Zucker rat sub-chronic fa/fa prediabetic model at 10 mg/kg, po qd for 15 days by microarray analysis relative to control; type: functional
Rattus norvegicus [29] = assay: Effect on PRKD3 gene expression in epididymal white adipose tissue of Zucker rat sub-chronic fa/fa prediabetic model at 10 mg/kg, po qd for 15 days by microarray analysis relative to control; type: functional
Rattus norvegicus [30] = assay: Effect on PPARGC1B gene expression in epididymal white adipose tissue of Zucker rat sub-chronic fa/fa prediabetic model at 10 mg/kg, po qd for 15 days by microarray analysis relative to control; type: functional
Rattus norvegicus [31] = assay: Effect on HMGCS1 gene expression in epididymal white adipose tissue of Zucker rat sub-chronic fa/fa prediabetic model at 10 mg/kg, po qd for 15 days by microarray analysis relative to control; type: functional
Rattus norvegicus [32] = assay: Effect on ME1 gene expression in epididymal white adipose tissue of Zucker rat sub-chronic fa/fa prediabetic model at 10 mg/kg, po qd for 15 days by microarray analysis relative to control; type: functional
Rattus norvegicus [33] = assay: Effect on IMPA2 gene expression in epididymal white adipose tissue of Zucker rat sub-chronic fa/fa prediabetic model at 10 mg/kg, po qd for 15 days by microarray analysis relative to control; type: functional
Rattus norvegicus [34] = assay: Effect on PTGS2 gene expression in epididymal white adipose tissue of Zucker rat sub-chronic fa/fa prediabetic model at 10 mg/kg, po qd for 15 days by microarray analysis relative to control; type: functional
Rattus norvegicus [35] = assay: Effect on HLA-DRB1 gene expression in epididymal white adipose tissue of Zucker rat sub-chronic fa/fa prediabetic model at 10 mg/kg, po qd for 15 days by microarray analysis relative to control; type: functional

SMILES: CN1CC[C@@H](N2C(=O)S/C(=C\c3ccc4c(cnn4Cc4ccc(Cl)cc4C(F)(F)F)c3)C2=O)[C@H](F)C1
- Activity (Rattus norvegicus [1]): -68%
- Activity (Rattus norvegicus [2]): Non-Toxic
- AUC(0-t) at 24 h [3]: 34500 ng·h/mL
- half-life [4]: 4.7 h
- Cmax [5]: 2900 ng/mL
- AUC at 24 h [6]: 85900 ng·h/mL
- Activity (Rattus norvegicus [7]): 142 g
- Activity (Rattus norvegicus [8]): 160 g
- Activity (Rattus norvegicus [9]): 157 g
- Activity (Rattus norvegicus [10]): 1049 g
- Activity (Rattus norvegicus [11]): 17.8 g
- concentration at 264 h [12]: 2660 ng/g
- Activity (Rattus norvegicus [13]): 27017 mg·min/dL
- Cmax [14]: 207 ng/mL
- Cmax [15]: 2680 ng/mL
- AUC(0-t) at 24 h [16]: 16900 ng·h/mL
- Activity (Rattus norvegicus [17]): Dose-dependent effect
- Activity (Rattus norvegicus [18]): 46.2 g
- Activity (Rattus norvegicus [19]): 167.8 g
- Activity (Rattus norvegicus [20]): 2.65 g
- Activity (Rattus norvegicus [21]): 164 mg/dL
- Activity (Rattus norvegicus [22]): 149 U/L
- Activity (Rattus norvegicus [23]): 0.44 mg/dL
- Activity (Rattus norvegicus [24]): Dose-dependent effect
- fold change (FC) (Rattus norvegicus [25]): 1.655
- fold change (FC) (Rattus norvegicus [26]): 1.401
- fold change (FC) (Rattus norvegicus [27]): 1.35
- fold change (FC) (Rattus norvegicus [28]): 1.475
- fold change (FC) (Rattus norvegicus [29]): -1.247
- fold change (FC) (Rattus norvegicus [30]): 2.249
- fold change (FC) (Rattus norvegicus [31]): -1.387
- fold change (FC) (Rattus norvegicus [32]): 2.409
- fold change (FC) (Rattus norvegicus [33]): 1.526
- fold change (FC) (Rattus norvegicus [34]): -1.389
- fold change (FC) (Rattus norvegicus [35]): -1.334
